# Measurements taken from ChEMBL document CHEMBL1201862, “PubChem BioAssay data set” (2004).
# Calls of active or inactive are those of the source.
# Tests used:
# [1] = molecular target: T1, Histone-lysine N-methyltransferase NSD2 (Homo sapiens, UniProt O96028); format: biochemical
# T1 sequence (O96028 whole entry): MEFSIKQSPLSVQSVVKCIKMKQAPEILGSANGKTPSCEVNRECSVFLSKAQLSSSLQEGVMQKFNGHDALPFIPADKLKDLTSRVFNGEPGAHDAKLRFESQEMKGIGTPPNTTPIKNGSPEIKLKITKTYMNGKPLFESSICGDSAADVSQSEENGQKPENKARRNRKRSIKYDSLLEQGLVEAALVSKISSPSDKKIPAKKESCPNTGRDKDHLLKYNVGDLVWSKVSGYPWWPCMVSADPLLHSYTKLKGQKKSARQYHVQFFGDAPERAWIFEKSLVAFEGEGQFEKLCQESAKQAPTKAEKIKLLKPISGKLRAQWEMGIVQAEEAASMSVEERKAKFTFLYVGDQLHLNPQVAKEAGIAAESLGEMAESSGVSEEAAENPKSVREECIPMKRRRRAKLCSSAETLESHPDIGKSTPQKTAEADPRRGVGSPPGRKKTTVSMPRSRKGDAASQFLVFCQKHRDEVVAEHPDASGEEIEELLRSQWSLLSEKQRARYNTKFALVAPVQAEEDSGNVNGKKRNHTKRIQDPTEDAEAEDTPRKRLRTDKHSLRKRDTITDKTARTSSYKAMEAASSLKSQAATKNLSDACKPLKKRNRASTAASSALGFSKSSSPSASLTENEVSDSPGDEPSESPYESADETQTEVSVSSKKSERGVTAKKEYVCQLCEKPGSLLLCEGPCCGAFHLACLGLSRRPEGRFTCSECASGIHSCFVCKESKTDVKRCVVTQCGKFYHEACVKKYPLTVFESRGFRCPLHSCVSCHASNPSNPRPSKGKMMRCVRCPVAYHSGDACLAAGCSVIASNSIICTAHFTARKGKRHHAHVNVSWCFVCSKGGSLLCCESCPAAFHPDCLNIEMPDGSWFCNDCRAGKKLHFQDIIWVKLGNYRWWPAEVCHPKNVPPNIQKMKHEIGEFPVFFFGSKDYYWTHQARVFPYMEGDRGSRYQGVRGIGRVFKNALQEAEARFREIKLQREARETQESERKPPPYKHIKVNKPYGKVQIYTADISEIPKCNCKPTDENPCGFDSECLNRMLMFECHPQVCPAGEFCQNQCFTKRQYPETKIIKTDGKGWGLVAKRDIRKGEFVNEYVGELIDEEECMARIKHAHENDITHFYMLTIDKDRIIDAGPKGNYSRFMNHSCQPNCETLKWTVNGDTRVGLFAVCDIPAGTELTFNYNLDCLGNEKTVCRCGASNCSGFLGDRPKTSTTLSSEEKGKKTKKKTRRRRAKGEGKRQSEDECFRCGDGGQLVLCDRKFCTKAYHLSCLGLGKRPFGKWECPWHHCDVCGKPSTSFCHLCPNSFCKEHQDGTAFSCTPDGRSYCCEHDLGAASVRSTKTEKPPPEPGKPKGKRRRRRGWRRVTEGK
# [2] = molecular target: Mitogen-activated protein kinase 10 (Homo sapiens, UniProt P53779); assay: Dose response biochemical screening assay for inhibitors of c-Jun N-Terminal Kinase 3 (JNK3). [Related pubchem assays: 746 ]
# [3] = molecular target: T2, Methionyl-tRNA synthetase, putative (Trypanosoma brucei brucei, UniProt Q38C91); format: functional, Trypanosoma brucei brucei strain 927/4 GUTat10.1
# T2 sequence (Q38C91 whole entry): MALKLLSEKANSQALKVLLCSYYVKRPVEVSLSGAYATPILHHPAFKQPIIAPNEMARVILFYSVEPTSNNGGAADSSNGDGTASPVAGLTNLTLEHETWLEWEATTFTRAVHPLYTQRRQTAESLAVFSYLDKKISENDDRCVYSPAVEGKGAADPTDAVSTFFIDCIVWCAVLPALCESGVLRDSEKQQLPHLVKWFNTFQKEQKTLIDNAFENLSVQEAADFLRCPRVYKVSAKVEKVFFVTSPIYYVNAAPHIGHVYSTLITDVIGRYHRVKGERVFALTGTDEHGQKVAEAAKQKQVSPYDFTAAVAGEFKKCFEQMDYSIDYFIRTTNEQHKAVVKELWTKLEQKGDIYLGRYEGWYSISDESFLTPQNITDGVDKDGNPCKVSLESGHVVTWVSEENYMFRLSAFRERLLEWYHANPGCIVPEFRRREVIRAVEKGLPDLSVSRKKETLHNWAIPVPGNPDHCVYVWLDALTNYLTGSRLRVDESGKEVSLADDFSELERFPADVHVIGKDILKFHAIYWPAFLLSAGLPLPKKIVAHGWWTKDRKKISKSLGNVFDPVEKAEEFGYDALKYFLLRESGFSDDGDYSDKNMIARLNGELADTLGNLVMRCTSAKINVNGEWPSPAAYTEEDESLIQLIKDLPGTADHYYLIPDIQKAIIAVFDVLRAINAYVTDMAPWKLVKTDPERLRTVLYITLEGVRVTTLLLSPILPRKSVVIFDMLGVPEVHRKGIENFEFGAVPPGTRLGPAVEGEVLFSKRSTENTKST
# [4] = Counterscreen for inhibitors of Trypanosoma brucei methionyl tRNA synthetase (MetRS): Luminescence-based cell-based high throughput dose response assay to identify compounds that are cytotoxic to Jurkat human T lymphocyte cells.; format: functional
# [5] = viability loss in HeLa cells – cytotoxicity control for MgcRacGAP inhibitor project, dose response (AID 624300); format: functional
# [6] = molecular target: T3, Rac GTPase-activating protein 1 (Homo sapiens, UniProt Q9H0H5); assay: blockers of MgcRacGAP-driven Rac1 GTP hydrolysis – biochemical, ADP Hunter fluorescence, primary and confirmatory, confirmation (AID 624330); format: functional
# T3 sequence (Q9H0H5 whole entry): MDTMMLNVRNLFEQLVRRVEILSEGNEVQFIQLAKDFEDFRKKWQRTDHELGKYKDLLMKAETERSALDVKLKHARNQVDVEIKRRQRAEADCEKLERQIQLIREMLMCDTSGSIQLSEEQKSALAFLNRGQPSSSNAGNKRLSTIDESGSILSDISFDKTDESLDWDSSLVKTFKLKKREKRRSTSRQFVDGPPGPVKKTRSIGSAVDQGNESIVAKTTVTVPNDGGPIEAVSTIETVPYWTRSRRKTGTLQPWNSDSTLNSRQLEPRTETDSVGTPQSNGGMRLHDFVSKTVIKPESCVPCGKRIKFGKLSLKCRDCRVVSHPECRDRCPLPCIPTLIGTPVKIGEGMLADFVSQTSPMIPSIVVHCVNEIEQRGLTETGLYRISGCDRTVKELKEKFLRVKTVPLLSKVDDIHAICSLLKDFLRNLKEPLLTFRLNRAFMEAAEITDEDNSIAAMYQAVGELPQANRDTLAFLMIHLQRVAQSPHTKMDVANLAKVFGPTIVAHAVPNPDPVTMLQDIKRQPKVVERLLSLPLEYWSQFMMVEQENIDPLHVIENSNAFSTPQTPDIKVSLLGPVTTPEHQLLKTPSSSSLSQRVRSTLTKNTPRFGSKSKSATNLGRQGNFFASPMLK
# [7] = molecular target: Induced myeloid leukemia cell differentiation protein Mcl-1 (Homo sapiens, UniProt Q07820); format: functional
# [8] = molecular target: T4, COUP transcription factor 2 (Homo sapiens, UniProt P24468); assay: Luminescence-based cell-based high throughput dose response assay to identify inhibitors of COUP-TFII (NR2F2).; format: functional;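 note: HEK293 cells transiently cotransfected with COUP-TFII expression vector and reporter; luciferase reporter luminescence driven by COUP-TFII from the pX2-168 reporter plasmid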
# T4 sequence (P24468 whole entry): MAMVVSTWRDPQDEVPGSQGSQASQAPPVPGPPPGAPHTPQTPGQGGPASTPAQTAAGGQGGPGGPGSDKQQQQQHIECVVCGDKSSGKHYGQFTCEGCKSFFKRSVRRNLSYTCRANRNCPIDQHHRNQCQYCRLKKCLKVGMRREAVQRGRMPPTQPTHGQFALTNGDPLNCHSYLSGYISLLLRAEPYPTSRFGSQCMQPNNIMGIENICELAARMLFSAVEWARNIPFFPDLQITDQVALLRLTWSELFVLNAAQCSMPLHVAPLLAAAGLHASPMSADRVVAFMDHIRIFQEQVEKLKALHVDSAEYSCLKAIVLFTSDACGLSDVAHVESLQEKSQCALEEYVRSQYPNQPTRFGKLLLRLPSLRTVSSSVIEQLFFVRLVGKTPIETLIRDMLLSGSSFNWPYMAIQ
# [9] = Luminescence Cell-Based Dose Retest to Confirm Inhibitors of Cancer Stem Cells. [Related pubchem assays (depositor defined):AID2717, AID2721]; format: functional; conditions: Homo sapiens
# [10] = molecular target: T5, RNA-binding protein pos-1 (Caenorhabditis elegans, UniProt G5EF15); assay: disruptors of C. elegans POS-1 RNA interaction – biochemical, fluorescence polarization, dose response (AID 1964);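 note: purified POS-1 fused to maltose binding protein made in E. coli; potency of compounds blocking POS-1 binding to fluorescent RNA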
# T5 sequence (G5EF15 whole entry): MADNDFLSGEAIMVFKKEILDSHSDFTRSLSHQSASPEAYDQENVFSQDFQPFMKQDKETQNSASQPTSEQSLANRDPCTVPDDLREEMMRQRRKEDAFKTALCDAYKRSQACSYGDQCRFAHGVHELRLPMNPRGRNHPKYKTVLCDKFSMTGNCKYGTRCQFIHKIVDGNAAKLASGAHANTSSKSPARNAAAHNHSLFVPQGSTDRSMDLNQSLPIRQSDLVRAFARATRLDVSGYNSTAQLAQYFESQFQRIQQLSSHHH
# [11] = molecular target: T6, Zinc finger protein mex-5 (Caenorhabditis elegans, UniProt Q9XUB2); assay: potency of MEX-5 RNA-binding blockers – biochemical, C. elegans, fluorescence polarization, dose response (AID 1960)
# T6 sequence (Q9XUB2 whole entry): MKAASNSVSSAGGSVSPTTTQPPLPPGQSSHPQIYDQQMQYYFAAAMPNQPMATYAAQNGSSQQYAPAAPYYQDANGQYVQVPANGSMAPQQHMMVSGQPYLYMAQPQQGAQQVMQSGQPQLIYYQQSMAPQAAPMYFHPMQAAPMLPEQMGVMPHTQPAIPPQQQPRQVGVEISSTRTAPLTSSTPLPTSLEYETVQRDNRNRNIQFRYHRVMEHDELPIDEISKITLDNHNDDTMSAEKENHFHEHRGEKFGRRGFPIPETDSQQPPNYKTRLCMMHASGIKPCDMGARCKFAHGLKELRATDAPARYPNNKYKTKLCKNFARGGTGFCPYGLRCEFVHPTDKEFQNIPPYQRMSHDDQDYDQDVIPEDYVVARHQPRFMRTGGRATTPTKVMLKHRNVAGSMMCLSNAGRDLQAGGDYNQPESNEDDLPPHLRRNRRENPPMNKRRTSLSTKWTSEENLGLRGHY
# [12] = P. falciparum Dd2 growth inhibitors, dose response, SYBR Green, cherry-picked samples (AID 1159567); format: functional, cell-based
# [13] = Dd2 parasite growth inhibition in erythrocytes – SYBR Green, dry powder samples, set 9, dose response (AID 1159568); format: functional, cell-based
# [14] = toxicity to human hepatoma HepG2 cells – cell-based, cherry-picked samples, cytotoxicity control, dose response (AID 1159577); format: functional
# [15] = molecular target: FAD-linked sulfhydryl oxidase ALR (Homo sapiens, UniProt P55789); assay: ALR-catalysed DTT oxidation blockers – biochemical, H2O2 detection, luminescence, cherry-pick, dose response (AID 493248)
# [16] = Luminescence Cell-Based Dose Confirmation HTS to Identify Activators of 5'UTR Stem-Loop Driven Alpha-Synuclein mRNA Translation in H4 Neuroglioblastoma Cells. [Related pubchem assays: 1829 (Project Summary), 1814 (Primary HTS)]; format: functional
# H4 = assay: Luminescence Cell-Based Dose Response HTS to Identify Activators of 5'UTR Stem-Loop Driven Prion Protein mRNA Translation in H4 Neuroglioblastoma Cells. [Related pubchem assays: 1829 (Project Summary), 1814 (Primary HTS)]; format: functional; conditions: Homo sapiens
# [17] = Luminescence Cell-Based Dose Response HTS to Identify Activators of Luciferase Translation or Activity in H4 […] Cells. [Related pubchem assays: 1829 (Project Summary), 1814 (Primary HTS)]; format: functional
# Chain of Mitogen-activated protein kinase 10 (P53779 whole entry): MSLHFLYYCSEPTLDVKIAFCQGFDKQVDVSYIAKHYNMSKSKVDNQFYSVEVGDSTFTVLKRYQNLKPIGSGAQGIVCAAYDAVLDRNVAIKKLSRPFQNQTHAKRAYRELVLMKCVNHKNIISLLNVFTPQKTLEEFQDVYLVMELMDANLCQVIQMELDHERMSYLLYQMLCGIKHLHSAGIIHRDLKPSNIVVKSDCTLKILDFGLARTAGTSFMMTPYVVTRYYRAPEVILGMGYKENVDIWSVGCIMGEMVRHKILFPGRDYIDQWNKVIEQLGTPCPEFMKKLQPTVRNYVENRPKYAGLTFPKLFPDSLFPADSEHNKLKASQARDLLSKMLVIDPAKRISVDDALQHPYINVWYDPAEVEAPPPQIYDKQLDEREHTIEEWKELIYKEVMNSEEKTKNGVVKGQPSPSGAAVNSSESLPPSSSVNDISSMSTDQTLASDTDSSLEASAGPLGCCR
# Chain of Induced myeloid leukemia cell differentiation protein Mcl-1 (Q07820 whole entry): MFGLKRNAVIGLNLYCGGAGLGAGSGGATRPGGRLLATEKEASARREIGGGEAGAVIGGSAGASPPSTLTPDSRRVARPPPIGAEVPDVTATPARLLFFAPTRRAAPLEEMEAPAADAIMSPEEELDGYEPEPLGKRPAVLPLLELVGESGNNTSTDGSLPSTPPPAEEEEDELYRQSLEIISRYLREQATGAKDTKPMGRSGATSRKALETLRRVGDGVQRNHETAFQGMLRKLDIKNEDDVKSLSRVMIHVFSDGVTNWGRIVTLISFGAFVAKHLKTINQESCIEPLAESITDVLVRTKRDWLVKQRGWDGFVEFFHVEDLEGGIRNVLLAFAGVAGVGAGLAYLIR
# Chain of FAD-linked sulfhydryl oxidase ALR (P55789 whole entry): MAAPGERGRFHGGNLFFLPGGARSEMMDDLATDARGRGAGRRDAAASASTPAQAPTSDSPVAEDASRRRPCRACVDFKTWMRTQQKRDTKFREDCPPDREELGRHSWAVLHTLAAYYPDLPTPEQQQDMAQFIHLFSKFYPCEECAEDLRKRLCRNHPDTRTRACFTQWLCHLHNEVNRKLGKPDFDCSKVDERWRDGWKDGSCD
structure (smiles),measurement,setting,value
CNCc1ccccc1Sc1cccc(O)c1,AC50,[1],> 20 µM (inactive)
CN1C=CC(=C2C(=O)c3ccccc3C2=O)C=C1,IC50,[2],28.5 µM (not active)
CCOC(=O)c1[nH]nc2ccccc12,IC50,[2],> 31 µM (not active)
N#C/C(=C\c1ccc(-c2ccc(C(=O)O)cc2)o1)C(=O)NCC1CCCO1 (stereo not drawn),AC50,[1],> 20 µM (inactive)
Clc1ccccc1-c1ccc2ncnc(NCc3ccc4c(c3)OCO4)c2c1,IC50,[3],30 µM (inactive)
same,IC50,[4],83.3 µM (inactive)
CCN(CC)CCCN(Cc1cc2cc3c(cc2nc1O)OCO3)C(S)=NCc1ccco1,AC50,[1],> 20 µM (inactive)
CCOC(=O)CSc1nc(N)c(C(=O)Nc2ccc(N(C)C)cc2)s1,CC50,[5],100 µM (active)
same,IC50,[6],31.7 µM (active)
same,IC50,[7],< 0.4 µM (active)
O=c1c2ccccc2oc2cc(C#CC3(O)CCCCC3)ccc12,IC50,[8],> 9.49 µM (active)
Cc1cc(-c2ccccc2)nc(N/N=C/c2ccc(O)cc2O)n1,AC50,[9],6.35 µM (active)
same,EC50,[10],> 300 µM (not active)
same,CC50,[5],100 µM (active)
same,IC50,[6],69.1 µM (active)
same,EC50,[11],54 µM (active)
COc1cc(/C=N/NC(=S)Nc2cccc(S(=O)(=O)N(C)C)c2)ccc1O,CC50,[5],100 µM (active)
same,IC50,[6],29 µM (active)
N#Cc1ccc(-c2ccc([C@@H]3[C@@H]4CN(C(=O)Nc5ccc6c(c5)OCO6)C[C@H]3N4)cc2)cc1,AC50,[12],3.41 µM (active)
same,AC50,[13],6.54 µM (active)
COc1cccc(-c2ccc3c(c2)[C@@H]2[C@@H](CCN2C(=O)NC2CCCCC2)[C@@H](CO)N3C)c1,AC50,[14],41.4 µM (active)
same,AC50,[12],2.88 µM (active)
C[C@@H]1CCCCO[C@@H](CN(C)Cc2ccc(Cl)c(Cl)c2)[C@@H](C)CN([C@@H](C)CO)C(=O)c2cc(NS(=O)(=O)c3cccs3)ccc2O1,AC50,[13],1.54 µM (active)
C[n+]1c2n(c3ccccc31)N=C(c1ccccc1)CS2,IC50,[8],13.8 µM (inactive)
same,AC50,[15],1.14 µM (active)
same,EC50,[16],16 µM (active)
same,EC50,H4,> 120 µM (not active)
same,EC50,[17],> 120 µM (not active)
